In article PMC5034043 (The Journal of Biological Chemistry, 2016):
Like-named read-outs stand apart in the source and are kept apart here.

Tested on: T1, synaptosomal proteome
T1 construct: from tissue; host or cells: brain synaptosomes of male C57/B6 mice
Format: binding, mouse
Experimental: Synaptosomes were resuspended to 1 mg of protein/ml in HEPES buffer medium (in mM: 140 NaCl, 5 KCl, 5 NaHCO3, 1.2 NaH2PO4, 1 MgCl2, 10 glucose, and 10 HEPES (pH 7.4)). […] The samples were allowed to equilibrate for 5 min before being transferred to a parafilm-sealed 1-mm path length quartz cuvette. The sample was then irradiated for 20 min at a peak bandwidth of 350 nm (Rayonet RPR-3500 lamp) ∼6 cm from the light source. Non-irradiated samples were left in the dark at ambient temperature (22–25 °C) for 20 min. All remaining procedures were conducted with restricted light exposure.
To 750 μg of photolabeled or control synaptosome samples, 40 μl of 10% SDS and 2 μl of 5 mM DTT in water were added. Samples were then vortexed, heated for 10 min at 65 °C, and then briefly cooled. Final concentrations of 150 μM azide-biotin (Click Chemistry Tools), 2 mM tris(3-hydroxypropyltriazolylmethyl)amine (Sigma), 1 mM ascorbic acid (Sigma), and 1 mM CuSO4·5H2O (Sigma) were added to each sample and vortexed vigorously. The samples were left in the dark at ambient temperature (22–25 °C) for 1 h with mild agitation. Directly to each sample 4× volume chilled methanol, 1.5× chilled chloroform, and 3× chilled double distilled H2O were added. Samples were vortexed vigorously and centrifuged at 1,400 × g for 30 min at 4 °C. Both liquid layers were carefully removed, and the protein pellet was washed with 2 ml of 1:1 (v/v) chilled methanol/chloroform. Samples were centrifuged at 3,500 × g for 30 min at 4 °C. Protein pellets were briefly air-dried before further processing.
750 μg of biotin-conjugated protein sample was resuspended in 500 μl of 25 mM NH4HCO3 and 6 M urea in water. Next, 150 μl of 5% Triton X-100 in water, 50 μl of 10% SDS in water, and 1.5 μl of 0.5 M DTT were added. The samples were heated for 15 min at 65 °C. After briefly cooling, 14 μl of 0.5 M iodoacetamide in water was added, and the sample was left in the dark for 45 min. […] The supernatant was diluted to 4 ml with PBS, and 2 ml of PBS containing 100 μl of 50% streptavidin-agarose resin (Thermo Scientific) was added. Biotinylated proteins within the sample were captured over resin overnight at 4 °C with mild agitation. The resin was first washed with 6 ml of 1% SDS in PBS, and then 7 ml of 0.1 M urea in PBS followed by 10 ml of PBS. The resin underwent a final wash with 0.9 ml of 50 mM Tris-HCl and 1 mM CaCl2 in water (pH 8.0) and then resuspended in 200 μl of 50 mM Tris-HCl, 1 mM CaCl2 in water (pH 8.0), and 2 μg of porcine sequencing grade trypsin (Promega). Samples were digested overnight at 37 °C. Samples were then centrifuged at 2,000 × g for 4 min, and digest supernatant was decanted. Beads were washed in 100 μl of PBS centrifuged at 5,200 × g for 5 min, and the wash was combined with the digest supernatant. To the combined sample, trifluoroacetic acid (TFA) was added to 0.4% (v/v) or until pH <2. The sample was desalted with Oasis C18 10-mg columns (Waters) as described previously ([66]). The eluted sample was dried by speed vac and resuspended in 0.1 M HEPES buffer (pH 8.5). […] Appropriate corresponding TMTsixplex^TM-labeled samples were pooled and dried by speed vac. The combined samples were resuspended in 0.5% acetic acid in water and pH-corrected with acetic acid until pH was <2. 40 μg of protein was desalted with C18 stage tips prepared in-house and dried by speed vac.
Samples were resuspended in 10 mM KH2PO4 (pH 2.6), 30% acetonitrile (v/v) in water, and fractionated by off-line strong cation exchange chromatography prior to mass spectrometry (MS) analysis similar to as reported previously ([66]). The full synaptosome proteome control was prepared similarly without TMTsixplex^TM labeling.
All TMT samples were analyzed with three-stage mass spectrometry (MS3) TMTsixplex^TM quantification workflow as described previously ([34]).

[1] = protein P26049 Gamma-aminobutyric acid receptor subunit alpha-3 (Gabra3)
[2] = protein P27671 Ras-specific guanine nucleotide-releasing factor 1 (Rasgrf1)
[3] = protein P35762 CD81 antigen (Cd81)
[4] = protein P50571 Gamma-aminobutyric acid receptor subunit beta-1 (Gabrb1)
[5] = protein P56480 ATP synthase subunit beta, mitochondrial (Atp5b)
[6] = protein P56564 Excitatory amino acid transporter 1 (Slc1a3)
[7] = protein P60879 Synaptosomal-associated protein 25 (Snap25)
[8] = protein P61264 Syntaxin-1B (Stx1b)
[9] = protein P62204 Calmodulin (Calm1)
[10] = protein P63328 Serine/threonine-protein phosphatase 2B catalytic subunit alpha isoform (Ppp3ca)
[11] = protein Q2TPA8 Hydroxysteroid dehydrogenase-like protein 2 (Hsdl2)
[12] = protein Q3TXX4 Vesicular glutamate transporter 1 (Slc17a7)
[13] = protein Q3UN02 Lysocardiolipin acyltransferase 1 (Lclat1)
[14] = protein Q4W8U9 Scg2 protein (Scg2)
[15] = protein Q5IRJ6 Zinc transporter 9 (Slc30a9)
[16] = protein Q5U458 DnaJ homolog subfamily C member 11 (Dnajc11)
[17] = protein Q7TME0 Lipid phosphate phosphatase-related protein type 4 (Lppr4)
[18] = protein Q7TQ95 Protein lunapark (Lnp)
[19] = protein Q8BFT9 Synaptic vesicle 2-related protein (Svop)
[20] = protein Q8BG51 Mitochondrial Rho GTPase 1 (Rhot1)

## C#CCOCc1ccc(C2(C(F)(F)F)N=N2)cc1O [AziPm-click (1), 2-((prop-2-yn-1-yloxy)methyl)-5-(3-(trifluoromethyl)-3H-diazirin-3-yl)phenol]
Protein O35963 Ras-related protein Rab-33B (Rab33b)
  TMT Ratio Mean 'UV/ No UV': 16.23
Protein P23819-4 Isoform 4 of Glutamate receptor 2 (Gria2)
  Log2( Mean 'UV/ No UV'): 3.65
[1]
  Log2( Mean 'UV/ No UV'): 4.09
  TMT Ratio Mean 'UV/ No UV': 17.05
[2]
  Log2( Mean 'UV/ No UV'): 4.14
  TMT Ratio Mean 'UV/ No UV': 17.58
Protein P35564 Calnexin (Canx)
  Log2( Mean 'UV/ No UV'): 4.47
  TMT Ratio Mean 'UV/ No UV': 22.10
[3]
  Log2( Mean 'UV/ No UV'): 4.34
  TMT Ratio Mean 'UV/ No UV': 20.23
[4]
  Log2( Mean 'UV/ No UV'): 4.63
  TMT Ratio Mean 'UV/ No UV': 24.73
[5]
  Log2( Mean 'UV/ No UV'): 3.54
  TMT Ratio Mean 'UV/ No UV': 11.59
[6]
  Log2( Mean 'UV/ No UV'): 4.59
  TMT Ratio Mean 'UV/ No UV': 24.11
[7]
  Log2( Mean 'UV/ No UV'): 4.57
  TMT Ratio Mean 'UV/ No UV': 23.77
[8]
  Log2( Mean 'UV/ No UV'): 4.37
  TMT Ratio Mean 'UV/ No UV': 20.71
[9]
  Log2( Mean 'UV/ No UV'): 4.63
  TMT Ratio Mean 'UV/ No UV': 24.78
[10]
  Log2( Mean 'UV/ No UV'): 3.65
  TMT Ratio Mean 'UV/ No UV': 12.55
Protein P70429-2 Isoform 1 of Ena/VASP-like protein (Evl)
  Log2( Mean 'UV/ No UV'): 4.31
Protein P97300-3 Isoform 3 of Neuroplastin (Nptn)
  Log2( Mean 'UV/ No UV'): 3.67
[11]
  Log2( Mean 'UV/ No UV'): 3.68
  TMT Ratio Mean 'UV/ No UV': 12.83
[12]
  Log2( Mean 'UV/ No UV'): 4.04
  TMT Ratio Mean 'UV/ No UV': 16.48
[13]
  Log2( Mean 'UV/ No UV'): 4.50
  TMT Ratio Mean 'UV/ No UV': 22.69
[14]
  Log2( Mean 'UV/ No UV'): 4.03
  TMT Ratio Mean 'UV/ No UV': 16.35
[15]
  Log2( Mean 'UV/ No UV'): 4.34
  TMT Ratio Mean 'UV/ No UV': 20.22
[16]
  Log2( Mean 'UV/ No UV'): 3.93
  TMT Ratio Mean 'UV/ No UV': 15.27
[17]
  Log2( Mean 'UV/ No UV'): 3.46
  TMT Ratio Mean 'UV/ No UV': 10.98
[18]
  Log2( Mean 'UV/ No UV'): 3.56
  TMT Ratio Mean 'UV/ No UV': 11.82
[19]
  Log2( Mean 'UV/ No UV'): 3.80
  TMT Ratio Mean 'UV/ No UV': 13.90
[20]
  Log2( Mean 'UV/ No UV'): 3.48
  TMT Ratio Mean 'UV/ No UV': 11.17
Protein Q8BH24 Transmembrane 9 superfamily member 4 (Tm9sf4)
  Log2( Mean 'UV/ No UV'): 4.09
